Patent US20060147511A1, “Liposomal glucocorticoids” (priority 2002, published 2006)

Experiments:
[1] = tested on: Antigen-induced arthritis; test: Antigen-induced arthritis in rats, histological examination of joint inflammation and joint cartilage destruction; format: in vivo; settings: for Degree of cartilage destruction / Degree of joint inflammation: 3.75 mg/kg intravenously 6, 24 and 48 hours after induction, scale 0: no changes, 6: massive changes compared to healthy knee
Method: (§1) Antigen-induced arthritis was provoked in test animals (rats) according to Buchner (“Behandlung der antigeninduzierten Arthritis der Ratte mit Anti-Makrophagenprinzipien und monoklonalen Anti-CD4 Antikörpern”, Ph.D. thesis 1996, Friedrich-Alexander University Erlangen-Nuremberg, Germany, p. 129).
(§2) Arthritis was provoked on day 0 according to Buchner by intra-articular injection of the antigen into the synovial gap in the right knee. The arthritic animals were treated intravenously with liposomal dexamethasone phosphate (formulation A, 3.75 mg/kg) 6, 24 and 48 hours after induction of arthritis. Free dexamethasone phosphate (formulation K, likewise 3.75 mg/kg) and physiological salt solution (saline) were used as controls. The effect of sample administration was established using the following parameters: • determination of joint swelling (cf., FIG. 1)
histological examination of inflammation parameters and of joint cartilage destruction parameters (cf. FIG. 2 and Table 2)
Degree of joint cartilage destruction and joint inflammation of arthritic animals after treatment
0: no changes compared to healthy knee
In analogy to Example 3, antigen-induced arthritis was provoked in the test animals. Arthritis was provoked on day 0 by intra-articular injection of the antigen into the synovial gap in the right knee. The arthritic animals were treated intravenously with liposomal dexamethasone phosphate (formulation B, C, 3.75 mg/kg each time, according to Table 4) 6, 24 and 48 hours after induction of arthritis. Free dexamethasone phosphate (formulation K, likewise 3.75 mg/kg) and physiological salt solution (saline) were used as controls. The effect of sample administration was established using the following parameters: • determination of joint swelling (cf., FIG. 5)
histological examination of inflammation parameters and of joint cartilage destruction parameters (cf., FIG. 2 and Table 5)

[2] = tested on: Antigen-induced arthritis; test: Antigen-induced arthritis in rats, determination of joint swelling; format: in vivo; settings: 0.375 mg per kg body weight
Method: as §1, §2
Arthritis was provoked in rats in analogy to Example 3, and the rats were treated with the following formulations containing only one tenth of the dexamethasone phosphate dose specified in Example 3:
In analogy to Example 3, antigen-induced arthritis was provoked in the test animals. Arthritis was provoked on day 0 by intra-articular injection of the antigen into the synovial gap in the right knee. […]

C[C@@H]1C[C@H]2[C@@H]3CCC4=CC(=O)C=C[C@]4(C)[C@@]3(F)[C@@H](O)C[C@]2(C)[C@@]1(O)C(=O)COP(=O)(O)O [Formulation K, dexamethasone phosphate]
Histological sections of arthritic knee joints (FIG. 2), finding ([1]; Hematoxylin/eosin staining, magnified 92fold): massive inflammation and destruction of cartilage and bone | Degree of cartilage destruction ([1]; Table 2, rats): 2.75 | Degree of joint inflammation ([1]; Table 2, rats): 3.5 | Degree of cartilage destruction ([1]; Table 5, rats): 2.75 | Degree of joint inflammation ([1]; Table 5, rats): 3.5 | Joint cartilage destruction and inflammatory reactions after treatment (in words) ([1]; rats, 3.75 mg/kg intravenously): considerably less effective | Suppression of antigen-induced arthritis [2]: developed all symptoms of the animal model after short amelioration
